Source: paper PMC10747300, “Identification of Indazole-Based Thiadiazole-Bearing Thiazolidinone Hybrid Derivatives: Theoretical and Computational Approaches to Develop Promising Anti-Alzheimer’s Candidates” (Pharmaceuticals, 2023)
Several values for one entry are separate records, joined by “and”; a condition that tells them apart may be missing. Identical values can stand only once. Like-named read-outs stand apart in the source and are kept apart here.

How the values were obtained:
[1] = biological target: T1, acetylcholinesterase (AChE) (Homo sapiens, UniProt P22303); experiment: biochemical
T1 construct: purchased Sigma 9000-81-1 (so in the source); this is the CAS number of acetylcholinesterase, not a catalogue number
Procedure: (§1) A spectrophotometric analysis was conducted by Ellman et al. to determine the inhibition of ChEs (AChE and BuChE). […] An incubation of 15 min was performed at room temperature with 140 L of sodium phosphate buffer (pH 8.0), 20 L of AChE/BuChE solution, and 20 L of the test sample. AChE/BuChE solutions containing DTNB were introduced into the 10 L solution to initiate the reaction. […] A percentage of inhibition was calculated using the ratio of enzyme activity in the presence of the test sample (E), minus enzyme activity without the test sample (S), expressed as E–S/E100. Each substance’s inhibition of substrate hydrolysis by ChE was quantified using its IC50 value (g/mL) or M. Compounds with the same IC50 values are calculated using the same standardized plot.

[2] = biological target: T2, butyrylcholinesterase (BuChE) (Homo sapiens, UniProt P06276); experiment: biochemical
T2 construct: purchased Sigma 9001-08-5 (this is the CAS number of cholinesterase, not a catalogue number)
Procedure: as §1

[3] = printed without unit in text / Figure 2, read-out: AChE IC50
[4] = substrate ATCh, DTNB, pH 8.0, 15 min incubation, read-out: AChE IC50 ± SEM
[5] = substrate BTCh, DTNB, pH 8.0, 15 min incubation, read-out: BuChE IC50 ± SEM
[6] = printed without unit in Figure 2 (second value of each pair), read-out: BuChE IC50

T1 sequence (P22303 32-614): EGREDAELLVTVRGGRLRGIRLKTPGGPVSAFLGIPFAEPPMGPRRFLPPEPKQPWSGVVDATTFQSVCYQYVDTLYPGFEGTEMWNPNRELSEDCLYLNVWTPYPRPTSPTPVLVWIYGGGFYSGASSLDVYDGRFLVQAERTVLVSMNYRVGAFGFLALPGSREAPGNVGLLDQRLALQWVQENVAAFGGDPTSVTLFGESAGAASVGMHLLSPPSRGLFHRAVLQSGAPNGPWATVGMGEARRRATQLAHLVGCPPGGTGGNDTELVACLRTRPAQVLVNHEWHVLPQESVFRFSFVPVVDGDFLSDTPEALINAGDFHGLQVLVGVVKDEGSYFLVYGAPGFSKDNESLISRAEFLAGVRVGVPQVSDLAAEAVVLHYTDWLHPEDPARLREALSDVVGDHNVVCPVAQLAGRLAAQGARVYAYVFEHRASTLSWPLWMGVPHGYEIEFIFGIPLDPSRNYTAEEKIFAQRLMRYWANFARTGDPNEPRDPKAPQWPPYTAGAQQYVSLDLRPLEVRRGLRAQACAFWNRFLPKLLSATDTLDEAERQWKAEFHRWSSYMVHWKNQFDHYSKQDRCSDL
T2 sequence (P06276 29-602): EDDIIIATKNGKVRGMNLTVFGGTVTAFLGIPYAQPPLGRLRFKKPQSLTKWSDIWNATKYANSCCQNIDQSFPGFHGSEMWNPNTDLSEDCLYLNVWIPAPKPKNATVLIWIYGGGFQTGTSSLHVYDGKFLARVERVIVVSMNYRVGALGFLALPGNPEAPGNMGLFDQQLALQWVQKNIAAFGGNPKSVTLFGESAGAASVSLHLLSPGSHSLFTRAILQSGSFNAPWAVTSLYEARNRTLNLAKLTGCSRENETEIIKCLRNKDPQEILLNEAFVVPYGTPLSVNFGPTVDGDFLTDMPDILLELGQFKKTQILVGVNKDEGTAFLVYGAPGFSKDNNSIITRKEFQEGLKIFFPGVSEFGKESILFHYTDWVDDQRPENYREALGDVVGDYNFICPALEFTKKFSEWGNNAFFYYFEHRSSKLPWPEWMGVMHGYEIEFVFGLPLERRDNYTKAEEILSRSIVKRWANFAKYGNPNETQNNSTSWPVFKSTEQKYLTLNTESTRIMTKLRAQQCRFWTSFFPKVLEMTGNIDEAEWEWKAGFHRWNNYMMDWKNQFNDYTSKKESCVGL

| Compound | IC50 [1, 3] | IC50 [1, 4] | IC50 [2, 5] | IC50 [2, 6] | AChE IC50 ([1]; printed without unit in text / Figure 2) |
| --- | --- | --- | --- | --- | --- |
| COc1ccc(/C=C2/S/C(=N\c3nnc(-c4ccc5[nH]ncc5c4)s3)NC2=O)cc1 [Compound 5, (Z)-2-((5-(1H-Indazol-5-yl)-1,3,4-Thiadiazol-2-yl)Imino)-5-((E)-4-Methoxybenzylidene)Thiazolidin-4-One] | 10400 ± 980 nM | 10400 ± 980 nM | 10600 ± 740 nM |  |  |
| Cc1cc(Br)cc(/C=C2/S/C(=N\c3nnc(-c4ccc5[nH]ncc5c4)s3)NC2=O)c1 [Compound 12, (Z)-2-((5-(1H-Indazol-5-yl)-1,3,4-Thiadiazol-2-yl)Imino)-5-((E)-3-Bromo-5-Methylbenzylidene)Thiazolidin-4-One] | 25120 ± 180 nM | 25120 ± 180 nM | 26200 ± 670 nM |  |  |
| O=C1N/C(=N/c2nnc(-c3ccc4[nH]ncc4c3)s2)S/C1=C/c1cccc(Br)c1 [Compound 11, (Z)-2-((5-(1H-Indazol-5-yl)-1,3,4-Thiadiazol-2-yl)Imino)-5-((E)-3-Bromobenzylidene)Thiazolidin-4-One] | 26700 ± 840 nM | 26700 ± 840 nM | 27080 ± 190 nM |  |  |
| O=C1N/C(=N/c2nnc(-c3ccc4[nH]ncc4c3)s2)S/C1=C/c1ccccc1F [Compound 15, (Z)-2-((5-(1H-Indazol-5-yl)-1,3,4-Thiadiazol-2-yl)Imino)-5-((E)-2-Fluorobenzylidene)Thiazolidin-4-One] | 1240 ± 360 nM | 1240 ± 360 nM | 1270 ± 400 nM | 1270 ± 400 nM |  |
| O=C1N/C(=N/c2nnc(-c3ccc4[nH]ncc4c3)s2)S/C1=C/c1ccc(C(F)(F)F)cc1 [Compound 9, (Z)-2-((5-(1H-Indazol-5-yl)-1,3,4-Thiadiazol-2-yl)Imino)-5-((E)-4-(Trifluoromethyl)Benzylidene)Thiazolidin-4-One] | 860 ± 300 nM | 860 ± 300 nM | 890 ± 120 nM | 890 ± 120 nM |  |
| O=C1N/C(=N/c2nnc(-c3ccc4[nH]ncc4c3)s2)S/C1=C/c1cccc2ccccc12 [Compound 13, (2Z,5E)-2-((5-(1H-Indazol-5-yl)-1,3,4-Thiadiazol-2-yl)Imino)-5-(Naphthalen-1-Ylmethylene)Thiazolidin-4-One] |  |  |  |  | no discernable activity |
| O=C1N/C(=N/c2nnc(-c3ccc4[nH]ncc4c3)s2)S/C1=C/c1ccc(Br)c([N+](=O)[O-])c1 [Compound 17, (Z)-2-((5-(1H-Indazol-5-yl)-1,3,4-Thiadiazol-2-yl)Imino)-5-((E)-4-Bromo-3-Nitrobenzylidene)Thiazolidin-4-One] | 22300 ± 1000 nM | 22300 ± 1000 nM | 20500 ± 860 nM |  |  |
| O=C1N/C(=N/c2nnc(-c3ccc4[nH]ncc4c3)s2)S/C1=C/c1ccc(Cl)c(Cl)c1 [Compound 8, (Z)-2-((5-(1H-Indazol-5-yl)-1,3,4-Thiadiazol-2-yl)Imino)-5-((E)-3,4-Dichlorobenzylidene)Thiazolidin-4-one] |  | 1220 ± 640 nM | 1290 ± 410 nM |  |  |
| O=C1N/C(=N/c2nnc(-c3ccc4[nH]ncc4c3)s2)S/C1=C/c1cc(Cl)c(Cl)c([N+](=O)[O-])c1 [Compound 1, (Z)-2-((5-(1H-Indazol-5-yl)-1,3,4-Thiadiazol-2-yl)Imino)-5-((E)-3,4-Dichloro-5-Nitrobenzylidene)Thiazolidin-4-One] |  | 860 nM and 1100 nM | 890 nM and 1190 nM | 1190 ± 420 nM |  |
| O=C1N/C(=N/c2nnc(-c3ccc4[nH]ncc4c3)s2)S/C1=C/c1cccc(F)c1 [Compound 16, (Z)-2-((5-(1H-Indazol-5-yl)-1,3,4-Thiadiazol-2-yl)Imino)-5-((E)-3-Fluorobenzylidene)Thiazolidin-4-One] | 1200 ± 580 nM | 1200 ± 580 nM | 1200 ± 470 nM | 1200 ± 470 nM |  |
| Cc1ccc(/C=C2/S/C(=N\c3nnc(-c4ccc5[nH]ncc5c4)s3)NC2=O)c(C)c1 [Compound 3, (Z)-2-((5-(1H-Indazol-5-yl)-1,3,4-Thiadiazol-2-yl)Imino)-5-((E)-2,4-Dimethylbenzylidene)Thiazolidin-4-One] | 8260 ± 400 nM | 8260 ± 400 nM | 8800 ± 130 nM |  |  |
| O=C1N/C(=N/c2nnc(-c3ccc4[nH]ncc4c3)s2)S/C1=C/c1ccc([N+](=O)[O-])cc1 [Compound 7, (Z)-2-((5-(1H-Indazol-5-yl)-1,3,4-Thiadiazol-2-yl)Imino)-5-((E)-4-Nitrobenzylidene)Thiazolidin-4-One] |  | 1400 ± 310 nM | 1570 ± 280 nM |  |  |
| Cc1cc(C)cc(/C=C2/S/C(=N\c3nnc(-c4ccc5[nH]ncc5c4)s3)NC2=O)c1 [Compound 4, (Z)-2-((5-(1H-Indazol-5-yl)-1,3,4-Thiadiazol-2-yl)Imino)-5-((E)-3,5-Dimethylbenzylidene)Thiazolidin-4-One] | 8600 ± 1050 nM | 8600 ± 1050 nM | 8840 ± 980 nM |  |  |
| O=C1N/C(=N/c2nnc(-c3ccc4[nH]ncc4c3)s2)S/C1=C/c1ccccc1Cl [Compound 2, (Z)-2-((5-(1H-Indazol-5-yl)-1,3,4-Thiadiazol-2-yl)Imino)-5-((E)-2-Chlorobenzylidene)Thiazolidin-4-One] | 3110 ± 590 nM | 3110 ± 590 nM | 3360 ± 280 nM |  |  |
| O=C1N/C(=N/c2nnc(-c3ccc4[nH]ncc4c3)s2)S/C1=C/c1ccc(F)cc1O [Compound 14, (Z)-2-((5-(1H-Indazol-5-yl)-1,3,4-Thiadiazol-2-yl)Imino)-5-((E)-4-Fluoro-2-Hydroxybenzylidene)Thiazolidin-4-One] | 920 ± 100 nM | 1100 nM and 920 nM | 1190 nM and 980 nM | 980 ± 480 nM |  |
| COc1cccc(/C=C2/S/C(=N\c3nnc(-c4ccc5[nH]ncc5c4)s3)NC2=O)c1 [Compound 6, (Z)-2-((5-(1H-Indazol-5-yl)-1,3,4-Thiadiazol-2-yl)Imino)-5-((E)-3-Methoxybenzylidene)Thiazolidin-4-One] | 12700 ± 330 nM | 12700 ± 330 nM | 13000 ± 150 nM |  |  |
| O=C1N/C(=N/c2nnc(-c3ccc4[nH]ncc4c3)s2)S/C1=C/c1ccc(Br)cc1 [Compound 10, (Z)-2-((5-(1H-Indazol-5-yl)-1,3,4-Thiadiazol-2-yl)Imino)-5-((E)-4-Bromobenzylidene)Thiazolidin-4-One] | 24680 ± 120 nM | 24680 ± 120 nM | 25000 ± 440 nM |  |  |
